Assay type in all cases: cell-based
For assay [1], the target named is T1, human TLR9 (Homo sapiens, UniProt Q9NR96).
T1 construct: host or cells: HEK-Blue cells
T1 sequence (Q9NR96 26-1032): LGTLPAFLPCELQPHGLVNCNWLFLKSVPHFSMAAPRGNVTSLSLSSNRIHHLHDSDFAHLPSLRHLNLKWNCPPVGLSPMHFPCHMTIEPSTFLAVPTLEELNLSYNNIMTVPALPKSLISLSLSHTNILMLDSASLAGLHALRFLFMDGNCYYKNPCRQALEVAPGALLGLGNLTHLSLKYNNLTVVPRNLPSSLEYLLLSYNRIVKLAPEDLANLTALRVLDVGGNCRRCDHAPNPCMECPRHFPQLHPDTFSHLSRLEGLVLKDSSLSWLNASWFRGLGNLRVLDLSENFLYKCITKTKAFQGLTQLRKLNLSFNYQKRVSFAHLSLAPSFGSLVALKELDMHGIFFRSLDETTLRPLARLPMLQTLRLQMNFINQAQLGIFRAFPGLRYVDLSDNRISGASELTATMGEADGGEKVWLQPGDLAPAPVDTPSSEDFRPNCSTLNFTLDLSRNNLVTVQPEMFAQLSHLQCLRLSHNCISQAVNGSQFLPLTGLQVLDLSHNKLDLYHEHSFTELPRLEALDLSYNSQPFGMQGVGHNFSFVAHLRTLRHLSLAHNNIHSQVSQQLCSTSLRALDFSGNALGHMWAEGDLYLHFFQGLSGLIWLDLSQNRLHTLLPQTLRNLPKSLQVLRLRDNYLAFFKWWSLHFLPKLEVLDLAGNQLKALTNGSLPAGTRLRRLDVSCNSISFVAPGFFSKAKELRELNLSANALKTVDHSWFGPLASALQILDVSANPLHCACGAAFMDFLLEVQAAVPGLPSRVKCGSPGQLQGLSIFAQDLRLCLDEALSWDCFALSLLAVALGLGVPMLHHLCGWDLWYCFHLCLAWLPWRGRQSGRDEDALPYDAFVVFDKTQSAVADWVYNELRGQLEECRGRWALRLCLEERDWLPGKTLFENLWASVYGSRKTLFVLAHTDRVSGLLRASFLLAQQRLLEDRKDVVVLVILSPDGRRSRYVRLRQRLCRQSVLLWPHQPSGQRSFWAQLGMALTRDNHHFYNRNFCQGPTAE
The assay can be described thus: TLR9 inhibition reporter assay (HEK-Blue cells, SEAP reporter, ODN2006 stimulation). Conditions: HEK-Blue cells overexpressing human TLR9, SEAP reporter, ODN2006 5 nM. The procedure, abridged:
(§1)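 Cells were pre-treated 30 min at room temperature with compound (final 0.05 nM–50 μM), then stimulated with gardiquimod 7.5 μM (TLR7), R848 15.9 μM (TLR8) or ODN2006 5 nM (TLR9). SEAP was read after 22 h at 37° C; percent inhibition scaled between agonist+DMSO and known-inhibitor wells.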

The target in assay [2] is T2, human TLR8 (Homo sapiens, UniProt Q9NR97).
T2 construct: host or cells: HEK-Blue cells
T2 sequence (Q9NR97 27-1041): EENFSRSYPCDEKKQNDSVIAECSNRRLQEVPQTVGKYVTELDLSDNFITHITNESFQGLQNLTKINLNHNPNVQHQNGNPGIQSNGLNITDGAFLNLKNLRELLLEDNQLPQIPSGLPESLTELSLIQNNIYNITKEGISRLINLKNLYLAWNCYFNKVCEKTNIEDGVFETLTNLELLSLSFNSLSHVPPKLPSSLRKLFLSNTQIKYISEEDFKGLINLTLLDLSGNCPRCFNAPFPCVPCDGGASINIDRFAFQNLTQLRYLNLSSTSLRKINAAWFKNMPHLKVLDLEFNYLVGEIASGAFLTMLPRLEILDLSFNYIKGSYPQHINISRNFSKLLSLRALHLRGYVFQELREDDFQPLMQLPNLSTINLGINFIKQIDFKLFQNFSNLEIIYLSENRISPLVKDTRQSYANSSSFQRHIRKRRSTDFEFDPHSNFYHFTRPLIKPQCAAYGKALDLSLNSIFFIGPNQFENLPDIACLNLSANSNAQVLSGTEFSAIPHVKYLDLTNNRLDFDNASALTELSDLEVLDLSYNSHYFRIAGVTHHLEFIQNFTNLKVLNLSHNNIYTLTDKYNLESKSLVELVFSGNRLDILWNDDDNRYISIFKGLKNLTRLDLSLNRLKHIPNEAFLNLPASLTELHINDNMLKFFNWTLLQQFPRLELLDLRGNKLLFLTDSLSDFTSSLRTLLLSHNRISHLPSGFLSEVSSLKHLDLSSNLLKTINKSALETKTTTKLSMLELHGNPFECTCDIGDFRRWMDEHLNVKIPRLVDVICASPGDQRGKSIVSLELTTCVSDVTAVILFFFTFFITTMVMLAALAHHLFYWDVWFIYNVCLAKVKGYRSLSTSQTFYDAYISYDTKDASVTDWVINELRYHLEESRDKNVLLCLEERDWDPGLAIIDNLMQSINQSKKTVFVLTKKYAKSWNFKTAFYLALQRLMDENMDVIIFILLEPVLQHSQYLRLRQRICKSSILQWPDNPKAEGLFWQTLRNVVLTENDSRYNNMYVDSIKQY
The assay can be described thus: TLR8 inhibition reporter assay (HEK-Blue cells, SEAP reporter, R848 stimulation). As to conditions: HEK-Blue cells overexpressing human TLR8, SEAP reporter, R848 15.9 μM. The essentials:
as §1
Background: Reporter assays use an easily measured gene product as a stand-in for the process of interest.

For assay [3], the target named is T3, human TLR7 (Homo sapiens, UniProt Q9NYK1).
T3 construct: host or cells: HEK-Blue cells
T3 sequence (Q9NYK1 27-1049): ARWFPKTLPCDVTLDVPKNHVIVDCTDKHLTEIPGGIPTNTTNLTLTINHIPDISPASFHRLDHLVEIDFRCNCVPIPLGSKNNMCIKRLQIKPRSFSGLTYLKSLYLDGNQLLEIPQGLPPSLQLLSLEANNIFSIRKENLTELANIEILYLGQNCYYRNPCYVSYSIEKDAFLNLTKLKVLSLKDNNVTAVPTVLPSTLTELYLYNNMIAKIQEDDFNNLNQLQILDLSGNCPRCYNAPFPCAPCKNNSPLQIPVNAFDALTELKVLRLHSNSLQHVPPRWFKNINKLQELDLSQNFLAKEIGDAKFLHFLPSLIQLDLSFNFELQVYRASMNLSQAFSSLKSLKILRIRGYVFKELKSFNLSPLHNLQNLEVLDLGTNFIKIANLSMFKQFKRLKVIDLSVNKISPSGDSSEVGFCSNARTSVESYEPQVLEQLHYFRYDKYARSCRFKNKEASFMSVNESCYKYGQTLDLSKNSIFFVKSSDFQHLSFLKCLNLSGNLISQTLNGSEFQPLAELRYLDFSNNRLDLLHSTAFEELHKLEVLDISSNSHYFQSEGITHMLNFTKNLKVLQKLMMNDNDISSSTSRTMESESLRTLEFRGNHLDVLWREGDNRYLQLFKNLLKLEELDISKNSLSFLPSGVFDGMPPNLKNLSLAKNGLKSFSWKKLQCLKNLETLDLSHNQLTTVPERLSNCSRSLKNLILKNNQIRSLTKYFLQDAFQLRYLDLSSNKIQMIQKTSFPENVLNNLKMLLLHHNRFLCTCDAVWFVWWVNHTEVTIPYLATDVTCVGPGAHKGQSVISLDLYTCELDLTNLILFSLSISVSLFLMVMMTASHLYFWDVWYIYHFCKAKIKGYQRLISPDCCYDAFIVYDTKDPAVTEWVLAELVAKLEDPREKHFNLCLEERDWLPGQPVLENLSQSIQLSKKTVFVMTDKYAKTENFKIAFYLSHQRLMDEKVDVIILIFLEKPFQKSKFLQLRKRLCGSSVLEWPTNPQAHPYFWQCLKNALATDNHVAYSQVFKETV
In words: TLR7 inhibition reporter assay (HEK-Blue cells, SEAP reporter, gardiquimod stimulation). Conditions: HEK-Blue cells overexpressing human TLR7, SEAP reporter, gardiquimod 7.5 μM. The essentials: as §1

Bounds are passed on as bounds.

Take `Cc1cc(-c2[nH]nc(C(=O)N[C@H]3CC[C@@H](NC(C)C(C)C)CC3)c2C(C)C)cn2ncnc12` (stereo partly drawn) [Example 99]: the IC50 (as a rule, the concentration that gives 50% inhibition) in assay [1] was 3610 nM; in assay [2], 36.7 nM; in assay [3] it was 1.19 nM.

Turning to `Cc1cc(-c2[nH]nc(C(=O)N(C)CCCN(C)C)c2C(C)C)cn2ncnc12` [Example 24], the IC50 amounted to 793 nM in assay [1], 12.5 nM in assay [2] and 43.4 nM in assay [3].

For the molecule `COCCNc1ccc2nc(-c3n[nH]c(-c4cc(C)c5ncnn5c4)c3C(C)C)sc2c1` [Example 267], the figures for the IC50 in assay [1], in assay [2] and in assay [3] were > 50000 nM, 7.16 nM and 24.3 nM, respectively.

As to `COc1cc(-c2[nH]nc(C(=O)NC3CCN(C4CCN(C(C)C)CC4)CC3)c2CC(F)(F)F)cn2ncnc12` [Example 199], the IC50 in assay [1] worked out at 2950 nM; in assay [2], 2.19 nM; in assay [3] it was 4.98 nM.

In the case of `COc1cc(-c2[nH]nc(-c3ccc(C4CCNCC4)cc3)c2C(C)C)cn2ncnc12` [compound 308], the IC50 came out at 15800 nM in assay [1], 0.09 nM in assay [2] and 0.18 nM in assay [3].

`Cc1cc(-c2[nH]nc(-c3ccc(N4CC(N(C)C)C4)cc3)c2C(C)C)cn2ncnc12` [Example 405, 1-(4-(4-isopropyl-5-(8-methyl-[1,2,4]triazolo[1,5-a]pyridin-6-yl)-1H-pyrazol-3-yl)phenyl)-N,N-dimethylazetidin-3-amine]: the IC50 was found to be 37700 nM in assay [1], 215 nM in assay [2] and 77.5 nM in assay [3].

For `COc1cc(-c2[nH]nc(-c3cnc(C4CCNCC4)cn3)c2C(C)C)cn2ncnc12` [Example 345], the IC50 in assay [1] is > 50000 nM; in assay [2], 3.12 nM; in assay [3], 23.4 nM.

On to `Cc1c(-c2[nH]nc(C(=O)NC3CCN(C(C)C)CC3)c2C(C)C)cn2ncnc2c1C` [Example 33], for which the results for the IC50 in assay [1], in assay [2] and in assay [3] were > 50000 nM, 1.52 nM and 3.86 nM, respectively.

Turning to `Cc1cc(-c2[nH]nc(-c3nc4c(s3)CN(CC(C)C)CC4)c2C(C)C)cn2ncnc12` [Example 255], the IC50 in assay [1] was determined as 15100 nM; in assay [2], 4.88 nM; in assay [3] it was 6.86 nM.

For `CCC(CC)CN[C@H]1CC[C@@H](NC(=O)c2n[nH]c(-c3cc(C)c4ncnn4c3)c2C(C)C)CC1` [Example 101], the values for the IC50 in assay [1], in assay [2] and in assay [3] were 4790 nM, 23 nM and 3.68 nM, respectively.

With `COc1cc(-c2[nH]nc(-c3ccc(C4CCN(CC(N)=O)CC4)cn3)c2C(C)C)cn2ncnc12` [Example 393], the IC50 in assay [1] was > 50000 nM; in assay [2], 140 nM; in assay [3], 77.6 nM.

As to `COc1cc(-c2[nH]nc(C(=O)NC3CCNCC3)c2C(C)C)cn2ncnc12` [Example 60], the half-maximal inhibitory concentration (IC50) in assay [1] was > 50000 nM; in assay [2], 27.9 nM; in assay [3], 36.6 nM.

For the molecule `Cc1cc(-c2[nH]nc(C(=O)NCC3CN(C)CCO3)c2C(C)C)cn2ncnc12` (stereo not drawn) [Example 139], the IC50 amounted to 17500 nM in assay [1], 26.3 nM in assay [2] and 4.96 nM in assay [3].

`Cc1cc(-c2[nH]nc(-c3ccc(N4CCN(CC(C)(C)C)CC4)cc3)c2C(C)C)cn2ncnc12` [Example 408]: the IC50 in assay [1] was > 50000 nM; in assay [2], 168 nM; in assay [3], 47.4 nM.

Take `Cc1cc(-c2[nH]nc(-c3ccc4c(c3)CNCC4)c2C(C)C)cn2ncnc12` [Example 231]: the figures for the IC50 in assay [1], in assay [2] and in assay [3] were 49500 nM, 1.19 nM and 6.32 nM, respectively.

In the case of `CNC(=O)CN1CCC(NC(=O)c2n[nH]c(-c3cc(OC)c4ncnn4c3)c2CC(F)(F)F)CC1` [Example 205, 5-(8-methoxy-[1,2,4]triazolo[1,5-a]pyridin-6-yl)-N-(1-(2-(methylamino)-2-oxoethyl)piperidin-4-yl)-4-(2,2,2-trifluoroethyl)-1H-pyrazole-3-carboxamide], the IC50 came to 21500 nM in assay [1], 2.33 nM in assay [2] and 6.66 nM in assay [3].

For `Cc1cc(-c2[nH]nc(C(=O)N3CC[C@H](N)C3)c2C(C)C)cn2ncnc12` [Example 53], the IC50 came out at 5070 nM in assay [1], 0.79 nM in assay [2] and 0.94 nM in assay [3].

For `Cc1cc(-c2[nH]nc(C(=O)N[C@H]3CC[C@@H](N(CCC(C)(C)C)CCC(C)(C)C)CC3)c2C(C)C)cn2ncnc12` [Example 90], the IC50 was determined as 11100 nM in assay [1], 1.13 nM in assay [2] and 0.8 nM in assay [3].

Consider `COCCN(C)C1CCC(NC(=O)c2n[nH]c(-c3cc(C)c4ncnn4c3)c2C(C)C)CC1` (stereo not drawn) [Example 128], for which the IC50 was determined as 13400 nM in assay [1], 8.29 nM in assay [2] and 1.21 nM in assay [3].

`Cc1cc(-c2[nH]nc(-c3ccc(C4CCN(C5COC5)CC4)nc3)c2C(C)C)cn2ncnc12` [Example 362]: the IC50 in assay [1] is 25100 nM; in assay [2] it was > 3130 nM; in assay [3], > 3130 nM.

Source of the values: patent publication US20230117470A1, “SUBSTITUTED PYRAZOLE COMPOUNDS AS TOLL RECEPTOR INHIBITORS” (BRISTOL-MYERS SQUIBB COMPANY, priority 2019, published 2023).
